Where two headings read alike, the source gives them in different places.
Columns and labels:
[1] = tested on: vascular endothelial growth factor (VEGF); assay: Brain VEGF gene expression in mice after intravenous injection; type: in vivo, Swiss Webster mice; details: 20 mg/kg i.v., four hours, quantitative real time PCR normalized to 18s RNA
Experimental: The effect of compounds of the present invention on regulation of cytoprotective and neuroprotective gene expression in brain was evaluated. In one series of experiments, male Swiss Webster mice were administered by intravenous injection various compounds of the present invention. Animals treated by intravenous injection received a 6 ml/kg volume of either 5% Dextrose with an equimolar amount of Meglumine (vehicle control) or 20 mg/kg of a compound of the present invention in 5% dextrose with an equimolar amount of Meglumine Animals were euthanized four hours later and their brains placed in RNAlater (Ambion, Austin Tex.) for subsequent analysis. Tissues were homogenized in Trizol (Invitrogen, Carlsbad Calif.) using 5-mm steel beads in a Mixer Mill (Qiagen, Valencia Calif.). RNA was isolated from the Trizol solution and then further purified using RNeasy kit (Qiagen). cDNA was prepared from […] total RNA using Omniscript reverse transcriptase (Qiagen) and random hexamers. Quantitative real time PCR was performed in a 7900HT instrument (Applied Biosystems, Foster City Calif.) using TaqMan Assays-on-Demand (Applied Biosystems). Gene expression levels were normalized to that of 18s RNA.

[2] = tested on: erythropoietin (EPO); assay: EPO expression in Hep3B cells (QUANTIKINE immunoassay of conditioned media); type: cell-based, Human; details: for Fold Increase Over Control: EPO, vs 1% DMSO control; for EPO: conditioned media after overnight incubation with compound
How it was run: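 Confluent Hep3B cells were switched to OPTI-MEM for about 24 h (20% O2, 5% CO2, 37 °C), then treated overnight with compound or 1% DMSO vehicle. EPO secreted into the conditioned medium was measured by QUANTIKINE immunoassay.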

[3] = tested on: erythropoietin (EPO); assay: EPO expression in Kelly neuroblastoma cells; type: cell-based; details: for EPO: conditioned media after overnight incubation
How it was run: (§1)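 Kelly neuroblastoma cells treated overnight with compound, 1% DMSO as negative control. EPO and VEGF secreted into conditioned media measured by QUANTIKINE immunoassay.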

[4] = tested on: vascular endothelial growth factor (VEGF); assay: VEGF expression in Kelly neuroblastoma cells; type: cell-based; details: for VEGF: conditioned media after overnight incubation
How it was run: as §1

[5] = tested on: erythropoietin; assay: Plasma EPO in mice after intravenous injection; type: in vivo, Swiss Webster mice; details: mouse plasma, 20 mg/kg i.v., four hours after injection; for fold induction at 20 mg/kg: iv, 4 h, read-out: EPO Fold Increase
How it was run: (§2)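 Male Swiss Webster mice (29-34 g) received 20 mg/kg compound or vehicle by tail-vein injection in 5% dextrose with equimolar NaOH or meglumine. Plasma was collected 4 h later, and EPO and VEGF were measured by ELISA.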

[6] = tested on: VEGF; assay: Plasma VEGF in mice after intravenous injection; type: in vivo, Swiss Webster mice; details: mouse plasma, 20 mg/kg i.v., four hours after injection; for fold induction at 20 mg/kg: iv, 4 h, read-out: VEGF Fold Increase
How it was run: as §2

[7] = tested on: erythropoietin; assay: Plasma EPO in mice after oral gavage; type: in vivo, Swiss Webster mice; details: mouse plasma, oral gavage 6-60 mg/kg, six hours
Experimental: (§3) In another series of experiments, male Swiss Webster mice (29-34 g) were administered various compounds of the present invention via oral gavage using a ball-tipped gavage needle. Animals treated by oral gavage received a 4-10 ml/kg volume of either 0.5% carboxymethyl cellulose with or without 0.1% Polysorbate 80 (vehicle control) or various doses (6-60 mg/kg) of a compound of the present invention in 0.5% CMC, with or without 0.1% Polysorbate 80. Blood samples were collected and tissues were processed as described above. Six hours after injection, the animals were anesthetized and exsanguinated.
(§4) Plasma samples were collected in EDTA and heparin coated microtainer tubes. Plasma samples were assayed for erythropoietin and VEGF using commercially-available ELISA kits purchased from R & D Systems (Minneapolis Minn.).

[8] = tested on: VEGF; assay: Plasma VEGF in mice after oral gavage; type: in vivo, Swiss Webster mice; details: mouse plasma, oral gavage 6-60 mg/kg, six hours
Experimental: as §3, §4

[9] = tested on: C57BL/6 mice, permanent occlusion of the MCA; assay: Permanent middle cerebral artery occlusion (pMCAO) in C57BL/6 mice: infarct volume and edema; type: in vivo; details: C57BL/6 mice pMCAO, 20-60 mg/kg i.v.; for inhibition in vivo at up to 20 mg/kg: Mus musculus, iv, 24 h, 24 hours after MCA occlusion, read-out: Percent Reduction in Infarct Volume
Experimental: The effect of compounds of the present invention on infarct volume and edema associated with stroke was examined in an animal model of ischemic stroke. In these studies, mice were subjected to permanent occlusion of the middle cerebral artery. Mice were anesthetized intraperitoneally with avertin (0.5 mg/g). Mice were then immobilized in a rodent stereotaxic frame (Kopf Instruments, Tujunga Calif.) and maintained with avertin as needed. The surgical area of the head was swabbed with 70% ethanol and a lateral incision was made between the right orbit and the right ear. […] The distal course of the middle cerebral artery (MCA) was visible through the translucent skull. A small burr-hole craniotomy was performed with a micro-drill (Fine Science Tools, Foster City Calif.). The meninges/dura was removed and the MCA was coagulated by bipolar diathermy. The muscle and soft tissue were replaced and the incision closed with vet-bond adhesive (3M, St. Paul Minn.). These studies were performed in two different mouse models of pMCAO as described below.
In one series of experiments, male C57BL/6 mice (25-35 g) were subjected to permanent occlusion of the MCA as described above. Compounds of the present invention were administered by intravenous injection at various times before or after MCA occlusion (see Table 7). Animals administered compound by intravenous injection received a 6 ml/kg volume of either 5% Dextrose with an equimolar amount of Meglumine (vehicle control) or 20-60 mg/kg of a compound of the present invention in 5% dextrose with an equimolar amount of Meglumine. Body temperature of the animals was maintained by use of a heating pad both during and after surgery. Twenty-four hours after MCA occlusion animals were euthanized with CO2 and their brains removed. After removal, the brain was sliced in 7 coronal sections, each 1 mm thick. The sections were placed rostral side down in a petri dish and stained with 1% Triphenyl tetrazolium chloride for 20 minutes at 37° C. for determination of infarct volume. Brain sections were then digitally photographed and analyzed for changes in infarct volume and extent of edema. Infarct volumes were determined by measuring the infarcted (i.e., non-stained) areas of each brain section and multiplying this value by the section thickness. Extent of edema was determined by the net increase in volume of the ipsilateral cortex compared to that of the contralateral cortex of brain sections.
The effect of compounds of the present invention administered at various times following the onset of stroke was examined further as follows. In these studies, changes in infarct volume were measured using an animal model of stroke when compounds of the present invention were administered from 0 to 8 hours following permanent MCA occlusion. In one series of experiments, male C57BL/6 mice (25-35 g) were subjected to permanent occlusion of the MCA as described above. Compound F was administered to the animals by a single intravenous bolus injection at various times up to 5 hours after MCA occlusion (see Table 8 below). Animals administered compound by intravenous injection received a 6 ml/kg volume of either 5% Dextrose with an equimolar amount of NaOH (vehicle control) or 60 mg/kg of Compound F in 5% dextrose with an equimolar amount of NaOH. Body temperature of the animals was maintained by use of a heating pad both during and after surgery. Changes in infarct volumes were determined as described above.
In another set of experiments, male C57BL/6 mice (25-35 g) were subjected to permanent occlusion of the MCA as described above. Compound F was administered by single intravenous bolus injection at various times up to 8 hours after MCA occlusion (see Table 9 below). Animals administered compound by intravenous injection received a 6 ml/kg volume of either 5% Dextrose with an equimolar amount of Meglumine (vehicle control) or 60 mg/kg of Compound F in 5% dextrose with an equimolar amount of Meglumine. […]

[10] = compound given 4 hr after occlusion

Compound | Fold Increase Over Control [2] | EPO [2] | EPO Fold Increase [3] | EPO [3] | VEGF Fold Increase [4] | VEGF [4] | fold induction at 20 mg/kg [6] | VEGF [6] | VEGF [8] | VEGF Fold Increase [8] | inhibition in vivo at up to 20 mg/kg [9, 10] | fold induction at 20 mg/kg [5] | EPO Fold Increase [7] | EPO ([5]; mouse EPO ELISA kit (**)) | EPO ([7]; mouse EPO ELISA kit (**)) | other results
Cc1nc(C(=O)NCC(=O)O)c(O)c2cc(Oc3ccccc3)ccc12 [Compound AA, [(4-Hydroxy-1-methyl-6-phenoxy-isoquinoline-3-carbonyl)-amino]-acetic acid] | – | – | – | – | – | – | – | – | – | – | – | – | – | – | – | VEGF gene expression in brain [1]: 2.1
O=C(O)CNC(=O)c1ncc2ccc(Sc3ccccn3)cc2c1O [Compound AB, {[4-Hydroxy-6-(pyridin-2-ylsulfanyl)-isoquinoline-3-carbonyl]-amino}-acetic acid] | – | – | – | – | – | – | – | – | – | – | – | – | – | – | – | VEGF gene expression in brain [1]: 2.1
O=C(O)CNC(=O)c1ncc2cc(Sc3ccccc3)ccc2c1O [Compound E, [(4-Hydroxy-7-phenylsulfanyl-isoquinoline-3-carbonyl)-amino]-acetic acid] | 17.0 | 127.6 mIU/ml | 9.0 | 55.8 mIU/ml | 15.8 | 2495.8 pg/mL | 1.58 | 66.5 pg/mL | 65.4 pg/mL | 1.63 | 9% | – | – | – | – | EPO ([5]; human EPO ELISA kit (*)): 122 mIU/ml; EPO ([7]; human EPO ELISA kit (*)): 17.4 mIU/ml; Percent Reduction in Edema ([9]; compound given −6 hr): 54%; inhibition in vivo at up to 20 mg/kg ([9]; compound given −6 hr): 51%
O=C(O)CNC(=O)c1ncc2cc(Oc3ccc(F)cc3)ccc2c1O [Compound G, {[7-(4-Fluoro-phenoxy)-4-hydroxy-isoquinoline-3-carbonyl]-amino}-acetic acid] | 5.1 | 73.4 mIU/ml | 5.5 | 34.4 mIU/ml | 14.4 | 2271.5 pg/mL | 2.46 | 86.5 pg/mL | 110.8 pg/mL | 2.58 | 48% | 270 | 123.57 | – | – | EPO ([5]; human EPO ELISA kit (*)): 162 mIU/ml; EPO ([7]; human EPO ELISA kit (*)): 173 mIU/ml
O=C(O)CNC(=O)c1nc(Cl)c2ccsc2c1O [Compound L, [(4-Chloro-7-hydroxy-thieno[3,2-c]pyridine-6-carbonyl)-amino]-acetic acid] | 4.2 | 11.1 mIU/ml | 5.2 | 98.2 mIU/ml | 3.3 | 4750.0 pg/mL | 0.43 | 13 pg/mL | 41 pg/mL | 1.32 | 48% | 14.6 | 11.81 | 400.3 pg/mL | 82.7 pg/mL | –
C#Cc1nc(C(=O)NCC(=O)O)c(O)c2ccsc12 [Compound M, [(7-Ethynyl-4-hydroxy-thieno[2,3-c]pyridine-5-carbonyl)-amino]-acetic acid] | 11.6 | 64.1 mIU/ml | 285 | 57 mIU/ml | 2.0 | 1436 pg/mL | 1.31 | 38 pg/mL | 38 pg/mL | 1.23 | – | 180 | 1.26 | 161.6 pg/mL | 8.8 pg/mL | –
O=C(O)CNC(=O)c1ncc2cc(Oc3ccc4c(c3)OCO4)ccc2c1O [Compound O, {[7-(Benzo[1,3]dioxol-5-yloxy)-4-hydroxy-isoquinoline-3-carbonyl]-amino}-acetic acid] | 14.7 | 97.4 mIU/ml | 7.93 | 149.8 mIU/ml | 3.6 | 5235 pg/mL | 2.21 | 64 pg/mL | 46 pg/mL | 1.48 | – | 174 | 11.87 | 157 pg/mL | 83.1 pg/mL | inhibition in vivo at up to 20 mg/kg ([9]; compound given 0 hr): 31%
O=C(O)CNC(=O)c1ncc2cc(Oc3ccc4c(c3)CCO4)ccc2c1O [Compound X, {[7-(2,3-Dihydro-benzofuran-5-yloxy)-4-hydroxy-isoquinoline-3-carbonyl]-amino}-acetic acid] | 19.0 | 126.2 mIU/ml | 13.76 | 260.1 mIU/ml | 3.9 | 5751 pg/mL | 2.4 | 48 pg/mL | 36 pg/mL | 1.16 | – | – | 5.86 | 183 pg/mL | 41 pg/mL | inhibition in vivo at up to 20 mg/kg ([9]; compound given 0 hr): 36%
